Test results as given in PubChem BioAssay (NCI).
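Exposure lasted 48 hours, with cells grown in 96-well plates and compounds tested at five concentrations. At the GI50, growth is halved. Definition used: TGI = concentration required for complete inhibition of growth.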

What was measured:
Test in all cases: NCI-60 cell line screen, 48 h
[1] = test system: T-47D breast
[2] = test system: HS 578T breast
[3] = test system: SW-620 colon
[4] = test system: COLO 205 colon
[5] = test system: HOP-62 NSCLC
[6] = test system: SN12C renal
[7] = test system: UACC-62 melanoma
[8] = test system: OVCAR-8 ovarian
[9] = test system: SK-MEL-5 melanoma
[10] = test system: OVCAR-3 ovarian
[11] = test system: DU-145 prostate
[12] = test system: SK-OV-3 ovarian
[13] = test system: SF-295 CNS
[14] = test system: K-562 leukemia
[15] = test system: OVCAR-5 ovarian
[16] = test system: MCF7 breast
[17] = test system: U251 CNS
[18] = test system: M14 melanoma
[19] = test system: SK-MEL-2 melanoma
[20] = test system: NCI-H23 lung
[21] = test system: NCI/ADR-RES ovarian
[22] = test system: IGROV1 ovarian
[23] = test system: A549 NSCLC
[24] = test system: TK-10 renal
[25] = test system: NCI-H460 lung
[26] = test system: HOP-92 NSCLC
[27] = test system: NCI-H522 lung
[28] = test system: 786-0 renal
[29] = test system: HCT-116 colon
[30] = test system: MDA-MB-435
[31] = test system: KM12 colon
[32] = test system: RPMI-8226 leukemia
[33] = test system: UACC-257 melanoma
[34] = test system: ACHN renal
[35] = test system: CAKI-1 renal
[36] = test system: SF-268 CNS
[37] = test system: SNB-19 CNS
[38] = test system: PC-3 prostate
[39] = test system: HL-60(TB) leukemia
[40] = test system: HCT-15 colon
[41] = test system: UO-31 renal
[42] = test system: LOX IMVI melanoma
[43] = test system: MDA-MB-231 breast
[44] = test system: BT-549 breast
[45] = test system: EKVX NSCLC
[46] = test system: RXF 393 renal
[47] = test system: NCI-H226 lung
[48] = test system: SK-MEL-28 melanoma
[49] = test system: HCC-2998 colon
[50] = test system: SNB-75 CNS
[51] = test system: HT29 colon
[52] = test system: SR leukemia
[53] = test system: SF-539 CNS
[54] = test system: A498 renal
[55] = test system: MOLT-4 leukemia
[56] = test system: OVCAR-4 ovarian
[57] = test system: CCRF-CEM leukemia

N#CC1=C(N)NC(=S)NC1c1ccc(-c2ccc(-c3nc4ccccc4o3)cc2)s1 (centres undefined)
GI50 [1]: 15.4 µM | TGI [1]: > 50 µM | GI50 [2]: 16.1 µM | TGI [2]: 45.1 µM | GI50 [3]: 21.3 µM | TGI [3]: > 50 µM | GI50 [4]: 11.3 µM | TGI [4]: 33.4 µM | GI50 [5]: 9.33 µM | TGI [5]: 20.1 µM | GI50 [6]: 10.6 µM | TGI [6]: 28.4 µM | GI50 [7]: 9.2 µM | TGI [7]: 21.3 µM | GI50 [8]: 10.1 µM | TGI [8]: 22.4 µM | GI50 [9]: 9.14 µM | TGI [9]: 18.3 µM | GI50 [10]: 10.7 µM | TGI [10]: 37.2 µM | GI50 [11]: 17.6 µM | TGI [11]: > 50000 nM | GI50 [12]: 11 µM | TGI [12]: 31 µM | GI50 [13]: 13.3 µM | TGI [13]: 38.8 µM | GI50 [14]: 4.7 µM | TGI [14]: 15.5 µM | GI50 [15]: 16 µM | TGI [15]: 34.6 µM | GI50 [16]: 6.7 µM | TGI [16]: 19.2 µM | GI50 [17]: 7.73 µM | TGI [17]: 14.4 µM | GI50 [18]: 12.6 µM | TGI [18]: 30.3 µM | GI50 [19]: 9.2 µM | TGI [19]: 28.8 µM | GI50 [20]: 12 µM | TGI [20]: 27.4 µM | GI50 [21]: 12.1 µM | TGI [21]: 30.1 µM | GI50 [22]: 2210 nM | TGI [22]: 12.7 µM | GI50 [23]: 9 µM | TGI [23]: 20.2 µM | GI50 [24]: 18.6 µM | TGI [24]: > 50 µM | GI50 [25]: 7.58 µM | TGI [25]: 15.9 µM | GI50 [26]: 9.84 µM | TGI [26]: > 50000 nM | GI50 [27]: 9.65 µM | TGI [27]: 20.8 µM | GI50 [28]: 11.1 µM | TGI [28]: 22.4 µM | GI50 [29]: 7.71 µM | TGI [29]: 14.4 µM | GI50 [30]: 16.5 µM | TGI [30]: 48.5 µM | GI50 [31]: 15.1 µM | TGI [31]: > 50 µM | GI50 [32]: 16 µM | TGI [32]: > 50 µM | GI50 [33]: 11.2 µM | TGI [33]: 26.8 µM | GI50 [34]: 6.54 µM | TGI [34]: 12.9 µM | GI50 [35]: 10.1 µM | TGI [35]: 36.4 µM | GI50 [36]: 10.7 µM | TGI [36]: 26.5 µM | GI50 [37]: 13.3 µM | TGI [37]: > 50 µM | GI50 [38]: 9.78 µM | TGI [38]: > 50000 nM | GI50 [39]: 24.1 µM | TGI [39]: > 50000 nM | GI50 [40]: 12.3 µM | TGI [40]: > 50 µM | GI50 [41]: 7.89 µM | TGI [41]: 17 µM | GI50 [42]: 9.58 µM | TGI [42]: 21.4 µM | GI50 [43]: 7.16 µM | TGI [43]: 16.4 µM | GI50 [44]: 17.5 µM | TGI [44]: 47.6 µM | GI50 [45]: 14 µM | TGI [45]: 48.2 µM

N#Cc1cnc2cc(OC[C@@H](O)CO)c(NC(=O)C3CCCC3)cc2c1Nc1ccc(OCc2cccc(F)c2)c(Cl)c1
GI50 [46]: 1290 nM | TGI [46]: 3.41 µM | GI50 [1]: 1.13 µM | TGI [1]: 4.31 µM | GI50 [2]: 0.265 µM | TGI [2]: 1.43 µM | GI50 [3]: 1.53 µM | TGI [3]: 6.78 µM | GI50 [4]: 4.28 µM | TGI [4]: 26 µM | GI50 [5]: 1.03 µM | TGI [5]: 2.62 µM | GI50 [6]: 1.88 µM | TGI [6]: 28.6 µM | GI50 [8]: 1.16 µM | TGI [8]: 3.01 µM | GI50 [47]: 3.86 µM | TGI [47]: 11.4 µM | GI50 [9]: 7.72 µM | TGI [9]: 17.5 µM | GI50 [10]: 0.874 µM | TGI [10]: 1.82 µM | GI50 [11]: 0.712 µM | TGI [11]: 1420 nM | GI50 [12]: 3.23 µM | TGI [12]: 11.5 µM | GI50 [48]: 669 nM | TGI [48]: 1420 nM | GI50 [13]: 3.78 µM | TGI [13]: 12.2 µM | GI50 [49]: 1100 nM | TGI [49]: 3.38 µM | GI50 [50]: 2190 nM | TGI [50]: > 50 µM | GI50 [15]: 7.69 µM | TGI [15]: 17.2 µM | GI50 [51]: 1390 nM | TGI [51]: 3.84 µM | GI50 [17]: 6.79 µM | TGI [17]: 15.6 µM | GI50 [52]: 1240 nM | TGI [52]: > 50 µM | GI50 [18]: 0.765 µM | TGI [18]: 1.61 µM | GI50 [19]: 0.915 µM | TGI [19]: 1.86 µM | GI50 [20]: 1.87 µM | TGI [20]: 11.9 µM | GI50 [21]: 21.7 µM | TGI [21]: > 50 µM | GI50 [23]: 6.74 µM | TGI [23]: 14.9 µM | GI50 [24]: 1.99 µM | TGI [24]: 7.21 µM | GI50 [25]: 1.05 µM | TGI [25]: 4.73 µM | GI50 [26]: 0.99 µM | TGI [26]: 2480 nM | GI50 [27]: 0.568 µM | TGI [27]: 1.34 µM | GI50 [28]: 4.51 µM | TGI [28]: 11.7 µM | GI50 [29]: 0.4 µM | TGI [29]: 1.1 µM | GI50 [30]: 1.82 µM | TGI [30]: 7.71 µM | GI50 [53]: 1150 nM | TGI [53]: 2930 nM | GI50 [31]: 3.84 µM | TGI [31]: 14.2 µM | GI50 [32]: 0.728 µM | TGI [32]: 3.12 µM | GI50 [54]: 2780 nM | TGI [54]: 13.4 µM | GI50 [55]: 1490 nM | TGI [55]: 4.69 µM | GI50 [56]: 514 nM | TGI [56]: 1280 nM | GI50 [34]: 3.01 µM | TGI [34]: > 50 µM | GI50 [35]: 5.61 µM | TGI [35]: > 50 µM | GI50 [36]: 1.37 µM | TGI [36]: 5.98 µM | GI50 [37]: 3.69 µM | TGI [37]: > 50 µM | GI50 [38]: 0.947 µM | TGI [38]: 1920 nM | GI50 [39]: 0.789 µM | TGI [39]: 2760 nM | GI50 [40]: 2.45 µM | TGI [40]: > 50 µM | GI50 [41]: 2.21 µM | TGI [41]: > 50 µM | GI50 [42]: 1.01 µM | TGI [42]: 2.28 µM | GI50 [57]: 480 nM | TGI [57]: 2190 nM | GI50 [43]: 0.74 µM | TGI [43]: 1.82 µM | GI50 [44]: 1.09 µM | TGI [44]: 2.89 µM | GI50 [45]: 1.33 µM | TGI [45]: 6.74 µM
